We go through one compound from patent publication US9878984B2, “Anti-cancer compounds” (NORTHWESTERN UNIVERSITY, priority 2008, dated 2018).

For this test, the system named is HeLa, PC-3M, and MDA-MB-231. Kind of test: MTS growth inhibition assay, human cancer cell lines. The format is cell-based. To be noted: 72 hr, MTS proliferation assay. Here is the method:
Cell Culture: HeLa (cervical carcinoma), WI-38 (normal human […] fibroblasts), and MDA-MB-231 (breast carcinoma), cells were cultured in DMEM (Invitrogen—Carlsbad, Calif.) and PC-3M (metastatic prostate carcinoma) cells were cultured in RPMI-1640. Peripheral blood mononuclear cells (PBMCs) were voluntarily collected from a healthy laboratory worker by standard sterile phlebotomy techniques and isolated using Vacutainer CPT collection tubes (BD Biosciences—Bedford, Mass.). PBMCs were isolated freshly for each experiment. All DMEM and RPMI-1640 media was supplemented with 10% FBS (Atlanta Biologicals—Lawrenceville, Ga.) and 100 U/mL penicillin and streptomycin (Invitrogen). […]
Growth Inhibition Assays: HeLa, MDA-MB-231, PC-3M, WI-38, and HUVEC cells were plated at 5,000 cells per well in 96 well plates and allowed to attach for 20 hr (8 hr for HeLa). […] Cell proliferation was measured at t=0 (time at start of treatment) and t=72 hr using MTS AQueous non-radioactive proliferation assay (Promega—Madison, Wis.). […] The absorbance at 490 nm in each well was read with a Spectramax 250 plate reader (Molecular Devices—Sunnyvale, Calif.). […] Data were fit to one site dose response curves in order to obtain specific growth inhibitory concentrations and the relative standard errors of the mean for these concentrations were calculated by the XLfit4 software. […]
A general note: Tetrazolium assays rely on reduction of a dye to a coloured formazan, in cell work by metabolically active cells.

Take `CN(C)CCN1C(=O)c2cccc3c(N)ccc(c23)C1=O` [A1, 6-amino-2-[2-(dimethylamino)ethyl]-1H-benz[de]isoquinoline-1,3(2H)-dione]: the growth inhibition potency entry is listed as “near identical to amonafide”.
